Where two headings read alike, the source gives them in different places.
Assays:
[1] = S-59 photoconversion and photoproducts in platelets in 65% PAS III/35% plasma, 150 μM S-59, HPLC; details: for % Residual S-59: 3x (~10.8 J/cm^2)
Method: Platelets collected in PAS/Plasma (65% PAS III/35% Plasma) were pooled and split into three 285 mL units for the study. Amotosalen (S-59) was added to a concentration of 150 μM, and the units were illuminated one time (˜3.6 J/cm^2 total dose), two times (˜7.2 J/cm^2 total dose), or three times (˜10.8 J/cm^2 total dose) with the narrow band 340 nm LEDs or 365 nm LEDs using the device of Example 1, or with the INT-100 device. Efficiency of S-59 photoconversion, as well as photoproducts formation, was assessed post-UVA illumination by HPLC as in previous Examples.
HPLC analysis of post-illumination samples was used to determine area counts and relative levels for photoproducts generated from the various treatment conditions.

[2] = test system: S. epidermidis; assay: Amotosalen and two sequential UV light doses (UVC + UVA) treatment of S. epidermidis in plasma, colony forming unit assay; type: cell-based; details: 15 μM amotosalen, titer pre-UV 7.51; for Titer Post-Second: ~3 J/cm^2 each
Method: Additionally, any two or more wavelengths of narrow bandwidth light are evaluated in combination, such as for example, photochemical treatment of a biological fluid using amotosalen and ultraviolet light of a first peak wavelength and ultraviolet light of a second peak wavelength, sequentially or concurrently. More specifically, in one example pathogen inactivation of E. coli (Gram negative) and S. epidermidis (Gram positive) bacteria was evaluated using amotosalen and the device with LEDs of wavelengths described in Example 8. […] The spiked plasma units were divided into control (no amotosalen+UV light) and treatment (with amotosalen) conditions, with amotosalen used at 15 μM concentration. The units were aliquoted into six-well plates (5 mL/well) for illumination. Pre-illumination samples were taken and control bacterial titers determined using standard colony forming unit assay. […] Data for pre-illumination titers, post-first illumination titer, post-second illumination titer, and post-treatment (after second illumination) residual amotosalen (S-59) are shown in the following Tables 40-41.

[3] = S-59 and photoproducts post-treatment in platelets in PAS/plasma, 150 μM amotosalen, liquid chromatography mass spectrometry; type: physicochemical
Source text: As mass spec extinction coefficients for photoproducts were assumed identical as S-59 extinction coefficients, only relative difference in concentrations (μM) between samples are compared in the following Table 9b, rather than absolute concentrations.

[4] = S-59 photoconversion in E. coli-spiked plasma, HPLC; type: physicochemical
Method: Bacterial titer results pre- and post-UVA treatment are shown in the following Table 4, along with the levels of bacterial inactivation obtained (log reduction). Additionally, the efficiency of photoconversion of amotosalen (S-59) was also determined and shown as percent remaining S-59 after each indicated treatment condition. LOQ represents the limit of quantification. Bacterial titers were analyzed pre- and post-UVA treatment to determine bacterial inactivation levels, which are shown as log reduction in the following Table 5. Additionally, S-59 photoconversion was also determined by HPLC and shown as both absolute concentration and percent remaining after each indicated treatment condition.

[5] = test system: E. coli; assay: Photochemical inactivation of E. coli in human plasma with amotosalen and UVA, colony forming unit assay; type: cell-based; details: for E. coli Log Reduction: ~6.4 J/cm^2, n = 2
[6] = test system: platelets
Method: Platelets collected in PAS/Plasma (65% PAS III/35% Plasma) were pooled and split into three 285 mL units for the study. Amotosalen (S-59) was added to a concentration of 150 μM, and the units were illuminated one time (˜3.6 J/cm^2 total dose), two times (˜7.2 J/cm^2 total dose), or three times (˜10.8 J/cm^2 total dose) with the narrow band 340 nm LEDs or 365 nm LEDs using the device of Example 1, or with the INT-100 device.
Additionally, various measures of platelet quality were evaluated by standard methodologies immediately after three times UVA illumination (˜10.8 J/cm^2), to identify potential differences among the light sources.

[7] = 340 nm, 220 mL plasma, 15 μM, ~6.4 J/cm^2
[8] = 340 nm, 350 mL plasma, 15 μM, ~6.4 J/cm^2
[9] = INT-100, 220 mL plasma, 15 μM, ~6.4 J/cm^2
[10] = INT-100, 350 mL plasma, 15 μM, ~6.4 J/cm^2

Cc1oc2c(C)c3oc(=O)cc(C)c3cc2c1COCCN [S-59, 3-(2-aminoethoxymethyl)-2,5,9-trimethylfuro[3,2-g]chromen-7-one]
S-59 concentration post-illumination ([1]; 340 nm LED, ~3.6 J/cm^2): 9 µM | S-59 concentration post-illumination ([1]; 340 nm LED, ~7.2 J/cm^2): 2 µM | S-59 concentration post-illumination ([1]; 340 nm LED, ~10.8 J/cm^2, <LOQ): 0.98 µM | HPLC area counts ([1]; 340 nm, 0 J/cm^2): 1826 | % Residual S-59 ([1]; 340 nm): 0.5% | HPLC area counts ([1]; 340 nm, 3.6 J/cm^2): 106 | HPLC area counts ([1]; 340 nm, 7.2 J/cm^2): 24 | HPLC area counts ([1]; 340 nm, 10.8 J/cm^2): 11 | S-59 concentration post-illumination ([1]; 365 nm LED, ~3.6 J/cm^2): 42 µM | S-59 concentration post-illumination ([1]; 365 nm LED, ~7.2 J/cm^2): 15 µM | S-59 concentration post-illumination ([1]; 365 nm LED, ~10.8 J/cm^2): 7 µM | HPLC area counts ([1]; 365 nm, 0 J/cm^2): 1753 | % Residual S-59 ([1]; 365 nm): 4.9% | HPLC area counts ([1]; 365 nm, 3.6 J/cm^2): 514 | HPLC area counts ([1]; 365 nm, 7.2 J/cm^2): 183 | HPLC area counts ([1]; 365 nm, 10.8 J/cm^2): 84 | HPLC area counts ([1]; INT 100, 0 J/cm^2): 1753 | % Residual S-59 ([1]; INT 100): 3.1% | HPLC area counts ([1]; INT 100, 3.6 J/cm^2): 396 | HPLC area counts ([1]; INT 100, 7.2 J/cm^2): 129 | HPLC area counts ([1]; INT 100, 10.8 J/cm^2): 56 | S-59 concentration post-illumination ([1]; INT-100, ~3.6 J/cm^2): 32 µM | S-59 concentration post-illumination ([1]; INT-100, ~7.2 J/cm^2): 11 µM | S-59 concentration post-illumination ([1]; INT-100, ~10.8 J/cm^2): 5 µM | Titer Post-Second ([2]; Light 1 265 nm then Light 2 325 nm): <−0.11 | Titer Post-Second ([2]; Light 1 265 nm then Light 2 340 nm): <−0.11 | Titer Post-Second ([2]; Light 1 265 nm then Light 2 365 nm): <−0.11 | Titer Post-First ([2]; Light 1 265 nm ~3 J/cm^2 (then 325 nm)): 4.19 | Titer Post-First ([2]; Light 1 265 nm ~3 J/cm^2 (then 340 nm)): 4.37 | Titer Post-First ([2]; Light 1 265 nm ~3 J/cm^2 (then 365 nm)): 4.12 | Titer Post-Second ([2]; Light 1 280 nm then Light 2 325 nm): <−0.11 | Titer Post-Second ([2]; Light 1 280 nm then Light 2 340 nm): <−0.11 | Titer Post-Second ([2]; Light 1 280 nm then Light 2 365 nm): <−0.11 | Titer Post-First ([2]; Light 1 280 nm ~3 J/cm^2 (then 325 nm)): 4.13 | Titer Post-First ([2]; Light 1 280 nm ~3 J/cm^2 (then 340 nm)): 4.51 | Titer Post-First ([2]; Light 1 280 nm ~3 J/cm^2 (then 365 nm)): 4.19 | Titer Post-Second ([2]; Light 1 325 nm then Light 2 265 nm): <−0.11 | Titer Post-Second ([2]; Light 1 325 nm then Light 2 280 nm): <−0.11 | Titer Post-First ([2]; Light 1 325 nm ~3 J/cm^2 (then 265 nm)): <−0.11 | Titer Post-First ([2]; Light 1 325 nm ~3 J/cm^2 (then 280 nm)): <−0.11 | Titer Post-Second ([2]; Light 1 340 nm then Light 2 265 nm): <−0.11 | Titer Post-Second ([2]; Light 1 340 nm then Light 2 280 nm): <−0.11 | Titer Post-First ([2]; Light 1 340 nm ~3 J/cm^2 (then 265 nm)): <−0.11 | Titer Post-First ([2]; Light 1 340 nm ~3 J/cm^2 (then 280 nm)): 0.73 | Titer Post-Second ([2]; Light 1 365 nm then Light 2 265 nm): <−0.11 | Titer Post-Second ([2]; Light 1 365 nm then Light 2 280 nm): <−0.11 | Titer Post-First ([2]; Light 1 365 nm ~3 J/cm^2 (then 265 nm)): <−0.11 | Titer Post-First ([2]; Light 1 365 nm ~3 J/cm^2 (then 280 nm)): <−0.11 | Post-illumination concentration (relative, LC-MS) ([3]; 340 nm, ~3.6 J/cm^2): 21.3 µM | Post-illumination concentration (relative, LC-MS) ([3]; 340 nm, ~7.2 J/cm^2): 4.8 µM | Post-illumination concentration (relative, LC-MS) ([3]; 340 nm, ~10.8 J/cm^2): 2.5 µM | Post-illumination concentration (relative, LC-MS) ([3]; INT100, ~3.6 J/cm^2): 37.0 µM | Post-illumination concentration (relative, LC-MS) ([3]; INT100, ~7.2 J/cm^2): 11.6 µM | Post-illumination concentration (relative, LC-MS) ([3]; INT100, ~10.8 J/cm^2): 12.0 µM | % S-59 remaining ([4]; 340 nm, 1.5 μM, ~3 J/cm^2): 9.0% | % S-59 remaining ([4]; 340 nm, 1.5 μM, ~6 J/cm^2): <LOQ | % S-59 remaining ([4]; 340 nm, 1.5 μM, ~9 J/cm^2): <LOQ | % S-59 remaining ([4]; 340 nm, 15 μM, ~3 J/cm^2): 13.5% | % S-59 remaining ([4]; 340 nm, 15 μM, ~6 J/cm^2): 2.5% | % S-59 remaining ([4]; 340 nm, 15 μM, ~9 J/cm^2): <LOQ | % S-59 remaining ([4]; 340 nm, 150 μM, ~3 J/cm^2): 39.9% | % S-59 remaining [4, 7]: 3.0% | S-59 Remaining [4, 7]: 0.5 µM | % S-59 remaining [4, 8]: 8.0% | S-59 Remaining [4, 8]: 1.1 µM | % S-59 remaining ([4]; INT-100, 15 μM, ~3 J/cm^2): 40.5% | % S-59 remaining ([4]; INT-100, 150 μM, ~3 J/cm^2): 63.0% | % S-59 remaining [4, 9]: 26.0% | S-59 Remaining [4, 9]: 4.0 µM | % S-59 remaining [4, 10]: 37.0% | S-59 Remaining [4, 10]: 5.5 µM | Log reduction ([5]; 340 nm, 1.5 μM, ~3 J/cm^2): 1.3 log | Post-UVA titer ([5]; 340 nm, 1.5 μM, ~3 J/cm^2): 5.0 log cfu/mL | Pre-UVA titer ([5]; 340 nm, 1.5 μM, ~3 J/cm^2): 6.3 log cfu/mL | Log reduction ([5]; 340 nm, 1.5 μM, ~6 J/cm^2): 1.5 log | Post-UVA titer ([5]; 340 nm, 1.5 μM, ~6 J/cm^2): 4.8 log cfu/mL | Pre-UVA titer ([5]; 340 nm, 1.5 μM, ~6 J/cm^2): 6.3 log cfu/mL | Log reduction ([5]; 340 nm, 1.5 μM, ~9 J/cm^2): 1.4 log | Post-UVA titer ([5]; 340 nm, 1.5 μM, ~9 J/cm^2): 4.9 log cfu/mL | Pre-UVA titer ([5]; 340 nm, 1.5 μM, ~9 J/cm^2): 6.3 log cfu/mL | Log reduction ([5]; 340 nm, 15 μM, ~3 J/cm^2): 4.7 log | Post-UVA titer ([5]; 340 nm, 15 μM, ~3 J/cm^2): 1.4 log cfu/mL | Pre-UVA titer ([5]; 340 nm, 15 μM, ~3 J/cm^2): 6.1 log cfu/mL | Log reduction ([5]; 340 nm, 15 μM, ~6 J/cm^2): 5.6 log | Post-UVA titer ([5]; 340 nm, 15 μM, ~6 J/cm^2): 0.5 log cfu/mL | Pre-UVA titer ([5]; 340 nm, 15 μM, ~6 J/cm^2): 6.1 log cfu/mL | Log reduction ([5]; 340 nm, 15 μM, ~9 J/cm^2): 5.6 log | Post-UVA titer ([5]; 340 nm, 15 μM, ~9 J/cm^2): 0.5 log cfu/mL | Pre-UVA titer ([5]; 340 nm, 15 μM, ~9 J/cm^2): 6.1 log cfu/mL | Log reduction ([5]; 340 nm, 150 μM, ~3 J/cm^2): >7.0 log | Post-UVA titer ([5]; 340 nm, 150 μM, ~3 J/cm^2): <−0.7 log cfu/mL | Pre-UVA titer ([5]; 340 nm, 150 μM, ~3 J/cm^2): 6.3 log cfu/mL | E. coli Log Reduction ([5]; 340 nm, 220 mL plasma, 15 μM): 6.0 log | E. coli Log Reduction ([5]; 340 nm, 350 mL plasma, 15 μM): 4.6 log | Log reduction ([5]; INT-100, 15 μM, ~3 J/cm^2): 4.2 log | Post-UVA titer ([5]; INT-100, 15 μM, ~3 J/cm^2): 2.0 log cfu/mL | Pre-UVA titer ([5]; INT-100, 15 μM, ~3 J/cm^2): 6.2 log cfu/mL | Log reduction ([5]; INT-100, 150 μM, ~3 J/cm^2): >7.1 log | Post-UVA titer ([5]; INT-100, 150 μM, ~3 J/cm^2): <−0.7 log cfu/mL | Pre-UVA titer ([5]; INT-100, 150 μM, ~3 J/cm^2): 6.4 log cfu/mL | E. coli Log Reduction ([5]; INT-100, 220 mL plasma, 15 μM): 5.3 log | E. coli Log Reduction ([5]; INT-100, 350 mL plasma, 15 μM): 4.4 log | ATP ([6]; 340 nm): 4.0 mmol/×10^8 | Lysis ([6]; 340 nm): 2.36% | pH (37° C.) ([6]; 340 nm): 6.61 | ATP ([6]; 365 nm): 4.8 mmol/×10^8 | Lysis ([6]; 365 nm): 1.72% | pH (37° C.) ([6]; 365 nm): 6.74 | ATP ([6]; INT 100): 4.1 mmol/×10^8 | Lysis ([6]; INT 100): 2.25% | pH (37° C.) ([6]; INT 100): 6.60
